pIC50: −log10 of the molar value. Structures can show the parent of a compound that is named as a salt.
molecular target: JNK1 (Homo sapiens (Human), UniProt P45983); assay: In Vitro JNK1 Assay (TR-FRET, phosphorylation of GST-c-Jun); format: biochemical; settings: 0.2 nM active JNK1 kinase, 26.7 nM GST-c-Jun, 2 μM ATP, 30 min at room temperature
Protocol: Phosphorylation of GST-c-Jun protein (amino acid residues 1-79) was measured as JNK1 activity. […] The reaction buffer contained 50 mM HEPES, pH […], 1 mM DTT, 0.1 mM Na3VO4 and 0.2 mg/mL BSA. After 30 min. incubation at room temperature, the reaction was terminated by adding buffer containing 8 mM EDTA and a polyclonal anti-phospho-c-Jun antibody (Cell Signaling #9261L), followed by an additional incubation of 30 min. at room temperature. […] Time-resolved Fluorescence Resonance Energy Transfer (TR-FRET) signals were measured 1 hr. later on the EnVision reader (Perkin Elmer). Compound potency was assessed at 10 serially diluted concentrations. Percentage of inhibition at each concentration was determined to generate an IC50 value for each compound.

JNK1, sequence (P45983 whole entry, the tested form may be a part): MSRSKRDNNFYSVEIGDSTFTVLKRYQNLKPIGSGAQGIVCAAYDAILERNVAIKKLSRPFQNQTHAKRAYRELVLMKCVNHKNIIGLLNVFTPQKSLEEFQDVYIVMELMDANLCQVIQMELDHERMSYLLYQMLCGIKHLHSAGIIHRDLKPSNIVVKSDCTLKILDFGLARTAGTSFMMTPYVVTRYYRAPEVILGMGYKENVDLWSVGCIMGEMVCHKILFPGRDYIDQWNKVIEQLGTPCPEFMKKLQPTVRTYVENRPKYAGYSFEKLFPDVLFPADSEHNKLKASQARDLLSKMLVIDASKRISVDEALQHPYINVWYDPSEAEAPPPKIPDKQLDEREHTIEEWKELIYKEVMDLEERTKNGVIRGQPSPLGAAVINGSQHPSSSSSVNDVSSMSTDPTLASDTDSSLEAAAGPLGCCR

| SMILES | pIC50 |
| --- | --- |
| COC(=O)c1c(CNC(=O)C2CCN(S(C)(=O)=O)CC2)c(=O)c2ccc(Cl)cc2n1-c1ccccc1 [Example I-131, 7-Chloro-3-{[(1-methanesulfonyl-piperidine-4-carbonyl)-amino]-methyl}-4-oxo-1-phenyl-1,4-dihydro-quinoline-2-carboxylic acid methyl ester] | 6.19 |
| COC(=O)c1c(CNC(=O)c2ccccn2)c(=O)c2ccc(Cl)cc2n1-c1ccccc1 [Example I-146, 7-Chloro-4-oxo-1-phenyl-3-{[(pyridine-2-carbonyl)-amino]-methyl}-1,4-dihydro-quinoline-2-carboxylic acid methyl ester] | 7.00 |
| COC(=O)c1c(CNC(=O)C(C)C)c(=O)c2ccc(Cl)cc2n1-c1ccccc1 [Example I-147, 7-Chloro-3-(isobutyrylamino-methyl)-4-oxo-1-phenyl-1,4-dihydro-quinoline-2-carboxylic acid methyl ester] | 6.70 |
| COC(=O)c1c(CNC(=O)c2ccccc2Cl)c(=O)c2ccc(Cl)cc2n1-c1ccccc1 [Example I-148, 7-Chloro-3-[(2-chloro-benzoylamino)-methyl]-4-oxo-1-phenyl-1,4-dihydro-quinoline-2-carboxylic acid methyl ester] | 6.37 |
| COC(=O)c1c(CNC(=O)c2ccccc2OC)c(=O)c2ccc(Cl)cc2n1-c1ccccc1 [Example I-149, 7-Chloro-3-[(2-methoxy-benzoylamino)-methyl]-4-oxo-1-phenyl-1,4-dihydro-quinoline-2-carboxylic acid methyl ester] | 6.17 |
| COC(=O)c1c(CNC(=O)c2ccc(N(C)C)cc2)c(=O)c2ccc(OC)cc2n1-c1ccccc1 [Example I-167, 3-[(4-Dimethylamino-benzoylamino)-methyl]-7-methoxy-4-oxo-1-phenyl-1,4-dihydro-quinoline-2-carboxylic acid methyl ester] | 6.74 |
| O=c1c(CNc2cc(N3CCCCC3)ncn2)cn(-c2ccccc2)c2cc(Cl)ccc12 [Example I-173, 7-Chloro-1-phenyl-3-[(6-piperidin-1-yl-pyrimidin-4-ylamino)-methyl]-1H-quinolin-4-one] | 6.85 |
| O=c1c(CNc2ccnc(N3CCCCC3)n2)cn(-c2ccccc2)c2cc(Cl)ccc12 [Example I-174, 7-Chloro-1-phenyl-3-[(2-piperidin-1-yl-pyrimidin-4-ylamino)-methyl]-1H-quinolin-4-one trifluoroacetate salt] | 6.46 |
| O=c1c(CNc2nc3ccccc3s2)cn(-c2ccccc2)c2cc(Cl)ccc12 [Example I-175, 3-(Benzothiazol-2-ylaminomethyl)-7-chloro-1-phenyl-1H-quinolin-4-one] | 6.15 |
| O=c1c(CNc2nc3ccccc3[nH]2)cn(-c2ccccc2)c2cc(Cl)ccc12 [Example I-176, 3-[(1H-Benzoimidazol-2-ylamino)-methyl]-7-chloro-1-phenyl-1H-quinolin-4-one] | 6.07 |
| N#C/N=C(/NCc1cn(-c2ccccc2)c2cc(Cl)ccc2c1=O)N1CCOCC1 [Example I-177, [(7-Chloro-4-oxo-1-phenyl-1,4-dihydro-quinolin-3-ylmethyl)-amino]-morpholin-4-yl-methylene-cyanamide] | 5.92 |
| N#C/N=C(/NCc1cn(-c2ccccc2)c2cc(Cl)ccc2c1=O)Nc1ccccc1 [Example I-178, [(7-Chloro-4-oxo-1-phenyl-1,4-dihydro-quinolin-3-ylmethyl)-amino]-phenylamino-methylene-cyanamide] | 5.57 |
| O=C(NCc1cn(-c2ccccc2)c2cc(Cl)ccc2c1=O)Oc1ccccc1 [Example I-179, (7-Chloro-4-oxo-1-phenyl-1,4-dihydro-quinolin-3-ylmethyl)-carbamic acid phenyl ester] | 5.70 |
| O=C(NCc1cn(-c2ccccc2)c2cc(Cl)ccc2c1=O)N1CCN(c2ccccc2)CC1 [Example I-180, 4-Phenyl-piperazine-1-carboxylic acid (7-chloro-4-oxo-1-phenyl-1,4-dihydro-quinolin-3-ylmethyl)-amide] | 6.92 |
| CC(C)(C)OC(=O)N[C@H]1CC[C@@H](NC(=O)NCc2cn(-c3ccccc3)c3cc(Cl)ccc3c2=O)CC1 [Example I-181, {4-[3-(7-Chloro-4-oxo-1-phenyl-1,4-dihydro-quinolin-3-ylmethyl)-ureido]-cyclohexyl}-carbamic acid tert-butyl ester] | 6.70 |
| CC(C)(C)OC(=O)N[C@H]1CC[C@H](NC(=O)NCc2cn(-c3ccccc3)c3cc(Cl)ccc3c2=O)CC1 [Example I-182, {4-[3-(7-Chloro-4-oxo-1-phenyl-1,4-dihydro-quinolin-3-ylmethyl)-ureido]-cyclohexyl}-carbamic acid tert-butyl ester] | 6.15 |
| CC(C)(C)OC(=O)N1CCC(NC(=O)NCc2cn(-c3ccccc3)c3cc(Cl)ccc3c2=O)C1 (stereo not shown) [Example I-183, 3-[3-(7-Chloro-4-oxo-1-phenyl-1,4-dihydro-quinolin-3-ylmethyl)-ureido]-pyrrolidine-1-carboxylic acid tert-butyl ester] | 6.04 |
| O=C(NCc1cn(-c2ccccc2)c2cc(Cl)ccc2c1=O)NC1CCCC1 [Example I-184, 1-(7-Chloro-4-oxo-1-phenyl-1,4-dihydro-quinolin-3-ylmethyl)-3-cyclopentyl-urea] | 6.04 |
| COC(=O)[C@H]1CC[C@@H](NC(=O)NCc2cn(-c3ccccc3)c3cc(Cl)ccc3c2=O)CC1 [Example I-185, 4-[3-(7-Chloro-4-oxo-1-phenyl-1,4-dihydro-quinolin-3-ylmethyl)-ureido]-cyclohexanecarboxylic acid methyl ester] | 5.96 |
| O=C(NCc1cn(-c2ccccc2)c2cc(Cl)ccc2c1=O)N1CCCC1 [Example I-186, Pyrrolidine-1-carboxylic acid (7-chloro-4-oxo-1-phenyl-1,4-dihydro-quinolin-3-ylmethyl)-amide] | 5.92 |
| CN1CCN(C(=O)NCc2cn(-c3ccccc3)c3cc(Cl)ccc3c2=O)CC1 [Example I-187, 4-Methyl-piperazine-1-carboxylic acid (7-chloro-4-oxo-1-phenyl-1,4-dihydro-quinolin-3-ylmethyl)-amide] | 5.85 |
| O=C(NCc1cn(-c2ccccc2)c2cc(Cl)ccc2c1=O)N1CCCCC1 [Example I-188, Piperidine-1-carboxylic acid (7-chloro-4-oxo-1-phenyl-1,4-dihydro-quinolin-3-yl-methyl)-amide] | 5.77 |
| COC(=O)[C@H]1CC[C@H](NC(=O)NCc2cn(-c3ccccc3)c3cc(Cl)ccc3c2=O)CC1 [Example I-189, 4-[3-(7-Chloro-4-oxo-1-phenyl-1,4-dihydro-quinolin-3-ylmethyl)-ureido]-cyclohexanecarboxylic acid methyl ester] | 5.70 |
| O=C(NCc1cn(-c2ccccc2)c2cc(Cl)ccc2c1=O)N1CCC(c2ccccc2)CC1 [Example I-190, 4-Phenyl-piperidine-1-carboxylic acid (7-chloro-4-oxo-1-phenyl-1,4-dihydro-quinolin-3-ylmethyl)-amide] | 5.68 |
| O=C(NCc1cn(-c2ccccc2)c2cc(Cl)ccc2c1=O)NC1C2CC3CC1CC(O)(C3)C2 (stereo not shown) [Example I-191, 1-(7-Chloro-4-oxo-1-phenyl-1,4-dihydro-quinolin-3-ylmethyl)-3-(5-hydroxy-adamantan-2-yl)-urea] | 6.62 |

From US8501732B2, “Aminomethyl quinolone compounds” (Hoffmann-La Roche Inc., priority 2011, dated 2013)
